Measurements as given in US8129533B2, “Method for production of quinolone-containing lyophilized preparation” (Dalichi Sankyo Company, Limited, priority 2005, dated 2012).

Assays:
[1] = Reconstitution time of lyophilized preparation (with vs without annealing step); type: physicochemical; conditions: for reconstitution time of lyophilized preparation: lyophilized preparation (20 mg/mL, pH-adjusting agent only) prepared with an annealing step vs without, water for injection 10 mL, moderate shaking, FIG. 8
Text: After a drug solution had been prepared in a manner similar to that described above, the solution was charged into a container and frozen under the conditions shown in Table 2, and then was lyophilized in a manner similar to that described above, followed by measurement of the time required for reconstitution (hereinafter the time may be referred to as a “reconstitution time”). The state observed about 30 seconds after injection of a liquid for reconstitution is shown in FIG. 2 (method without annealing step) or FIG. 3 (method with an annealing step).
Lyophilization was performed under varied annealing conditions (e.g., temperature and maintenance time for an annealing step) as shown in Table 3. […] Reconstitution time was measured through the following procedure: after completion of lyophilization, water for injection was added to a vial in an amount equal to that of the liquid charged into the vial, followed by moderate shaking, and the time required for complete dissolution of the content of the vial was measured.
Water for injection (10 mL) was added to a vial, followed by moderate shaking, and the time required for complete dissolution of the content of the vial was measured.

[2] = DSC of frozen product of compound-containing aqueous solution (glass transition temperature); type: physicochemical; conditions: frozen product of Table 1 formulation
Text: The temperature of the annealing step may be determined on the basis of the glass transition temperature of the frozen product of the compound (1)-containing aqueous solution obtained through the freezing step. Specifically, the temperature of the frozen product is elevated to a level equal to or higher than the glass transition temperature thereof, and then maintained for a predetermined period of time. The glass transition temperature of the frozen product may be determined through, for example, DSC of the frozen product, and this DSC may be performed according to a generally employed method. The glass transition temperature of frozen products is varied in accordance with, for example, the compositional proportions of ingredients of starting solutions for the products. Therefore, different frozen products are subjected to DSC for determination of the glass transition temperature thereof.
For example, in the DSC chart of the frozen product containing compound (I) and pH-adjusting agents having a formulation shown in Table 1, the peak corresponding to the glass transition temperature of the frozen product rises at about −14.0° C. (FIG. 5). […] Therefore, when the annealing step is performed at a temperature equal to or higher than this temperature, the annealing effect is expected to be attained.

[3] = tested on: drug-resistant Gram-positive bacteria such as methicillin-resistant staphylococci, penicillin-resistant pneumococci, and vancomycin-resistant enterococci; conditions: cited from earlier work
drug-resistant bacteria = conditions: cited from earlier work

Row | reconstitution time of lyophilized preparation [1] | Structure (SMILES) | other results
1 | reduced reconstitution time | CC1COc2c(N3CCN(C)CC3)c(F)cc3c(=O)c(C(=O)O)cn1c23 (racemic) [ofloxacin, (±)-9-fluoro-2,3-dihydro-3-methyl-10-(4-methyl-1-piperazinyl)-7-oxo-7H-pyrido[1,2,3-de][1,4]benzoxazine-6-carboxylic acid] | 
2 | reduced reconstitution time | C[C@H]1COc2c(N3CCN(C)CC3)c(F)cc3c(=O)c(C(=O)O)cn1c23 [levofloxacin, (−)-(S)-9-fluoro-2,3-dihydro-3-methyl-10-(4-methyl-1-piperazinyl)-7-oxo-7H-pyrido[1,2,3-de][1,4]benzoxazine-6-carboxylic acid hemihydrate] | 

The remaining lines, values behind:

Row | Structure (SMILES) | reconstitution time of lyophilized preparation [1] | other results
3 | COc1c(N2CC[C@@H](C3(N)CC3)C2)ccc2c(=O)c(C(=O)O)cn([C@@H]3C[C@@H]3F)c12 [compound (I), 7-[3-(R)-(1-aminocyclopropyl)pyrrolidin-1-yl]-1-[2-(S)-fluoro-1-(R)-cyclopropyl]-1,4-dihydro-8-methoxy-4-oxoquinoline-3-carboxylic acid] |  | reconstituting property of lyophilized cake ([1]; Table 1 formulation, frozen product maintained between glass transition temperature and a temperature at which it does not thaw): improved reconstituting property; temperature at which the glass transition peak starts (DSC) [2]: about −17 °C; antibacterial activity [3]: high antibacterial activity
4 | COc1c(N2CC3(CC3)[C@](C)(N)C2)c(F)cc2c(=O)c(C(=O)O)cn([C@@H]3C[C@@H]3F)c12 [compound (II), (+)-7-[(7S)-7-amino-7-methyl-5-azaspiro[2.4]heptan-5-yl]-6-fluoro-1-[(1R,2S)-2-fluoro-1-cyclopropyl]-1,4-dihydro-8-methoxy-4-oxo-3-quinolinecarboxylic acid hemihydrate] | reduced reconstitution time | antibacterial activity (drug-resistant bacteria): excellent antibacterial activity
5 | N[C@@H]1CN(c2c(F)cc3c(=O)c(C(=O)O)cn([C@@H]4C[C@@H]4F)c3c2Cl)CC12CC2 [sitafloxacin, (−)-7-[(7S)-7-amino-5-azaspiro[2.4]heptan-5-yl]-8-chloro-6-fluoro-1-[(1R,2S)-2-fluoro-1-cyclopropyl]-1,4-dihydro-4-oxo-3-quinolinecarboxylic acid sesquihydrate] | reduced reconstitution time | 
